Measurements as given in ChEMBL document CHEMBL1201862, “PubChem BioAssay data set” (2004).
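Compound exposure: 48 hours, 5 concentrations, 96-well plates. At the GI50, growth is halved.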 Active and inactive are the calls of the source. Cut-off read from the data, not from the text of the source: active = GI50 up to about 1.1 µM and inactive = higher.

Legend:
Test in all cases: NCI tumour cell line growth inhibition, 48 h
[1] = test system: KM12
[2] = test system: UACC-257
[3] = test system: HOP-62
[4] = test system: DMS-273
[5] = test system: DLD-1
[6] = test system: SF-295
[7] = test system: CCRF-CEM
[8] = test system: CAKI-1
[9] = test system: HCT-15
[10] = test system: 786-0
[11] = test system: SK-MEL-5
[12] = test system: TK-10
[13] = test system: SF-268
[14] = test system: OVCAR-5
[15] = test system: Hs-578T
[16] = test system: MDA-MB-231
[17] = test system: MDA-N
[18] = test system: T47D
[19] = test system: NCI/ADR-RES
[20] = test system: MDA-MB-435

Compound | GI50 [1] | GI50 [2] | GI50 [3] | GI50 [4] | GI50 [5] | GI50 [6] | GI50 [7] | GI50 [8] | GI50 [9] | GI50 [10] | GI50 [11] | GI50 [12] | GI50 [13] | GI50 [14] | GI50 [15] | GI50 [16] | GI50 [17] | GI50 [18] | GI50 [19] | GI50 [20]
Nc1nc(N)c2ncn(CCCC(c3ccccc3)P(=O)(O)O)c2n1 (stereo unspecified) | > 100 µM (inactive) | > 100 µM (inactive) | > 100 µM (inactive) | > 100 µM (inactive) | > 100 µM (inactive) | > 100 µM (inactive) | > 100 µM (inactive) | > 100 µM (inactive) | > 100 µM | > 100 µM (inactive) | > 100 µM (inactive) | > 100 µM (inactive) | > 100 µM (inactive) | > 100 µM (inactive) | – | – | – | – | – | –
Cc1cc(-c2c(F)cc3c4nn([C@H]5CC[C@@H](N(C)C)CC5)c(=O)c-4cn(C4CC4)c3c2F)cc(C)n1 | 0.313 µM (active) | 1.25 µM (inactive) | 0.097 µM (active) | 0.00594 µM (active) | 0.0428 µM (active) | 0.169 µM (active) | 0.0452 µM (active) | 0.0519 µM (active) | 1.74 µM | 0.133 µM (active) | 0.289 µM (active) | 0.519 µM (active) | 0.119 µM (active) | 1.42 µM (inactive) | 0.173 µM (active) | 0.536 µM (active) | 1.56 µM (inactive) | 0.347 µM (active) | – | –
CCOC(=O)C1=C(C)N(NC(N)=O)C2(N)N(NC(N)=O)C(C)=C(C(=O)OCC)C12C(=O)OCC (stereo unspecified) | > 100 µM (inactive) | > 100 µM (inactive) | > 100 µM (inactive) | > 100 µM (inactive) | > 100 µM (inactive) | > 100 µM (inactive) | – | > 100 µM (inactive) | > 100 µM | > 100 µM (inactive) | > 100 µM (inactive) | – | > 100 µM (inactive) | > 100 µM (inactive) | – | – | – | – | – | –
CC(=O)O[C@H]1C(=O)[C@@]2(C)[C@H]([C@H](OC(=O)c3ccccc3)[C@]3(O)C[C@H](OC(=O)[C@H](O)[C@@H](NC(=O)c4ccccc4)c4ccccc4)C(C)=C1C3(C)C)[C@]1(OC(C)=O)CO[C@@H]1C[C@@H]2O [PACLITAXEL] | – | – | 0.0129 µM (active) | 0.00313 µM (active) | 0.0448 µM (active) | – | 0.00267 µM (active) | 0.203 µM (active) | – | 0.0337 µM (active) | 0.00388 µM (active) | 0.113 µM (active) | 0.00658 µM (active) | 0.0783 µM (active) | 0.00597 µM (active) | 0.054 µM (active) | 0.00307 µM (active) | – | 3.11 µM (inactive) | 0.00395 µM (active)
Cc1cc(N(CCC#N)S(=O)(=O)c2ccccc2)ccc1/C=C1N=C(/C=C/c2ccccc2)OC\1=O | > 100 µM (inactive) | > 100 µM (inactive) | > 100 µM (inactive) | > 100 µM (inactive) | > 100 µM (inactive) | > 100 µM (inactive) | > 100 µM (inactive) | > 100 µM (inactive) | > 100 µM | > 100 µM (inactive) | 77.6 µM (inactive) | > 100 µM (inactive) | > 100 µM (inactive) | > 100 µM (inactive) | – | – | – | – | – | –
O=c1[nH]cc(OCC(F)(F)F)c(=O)[nH]1 | > 100 µM (inactive) | > 100 µM (inactive) | > 100 µM (inactive) | > 100 µM (inactive) | > 100 µM (inactive) | > 100 µM (inactive) | > 100 µM (inactive) | > 100 µM (inactive) | > 100 µM | > 100 µM (inactive) | > 100 µM (inactive) | > 100 µM (inactive) | > 100 µM (inactive) | > 100 µM (inactive) | – | – | – | – | – | –
CCOC(=O)C1S/C(=N/c2ccc(Cl)cc2C)N=C1C (stereo unspecified) | 15.5 µM (inactive) | 22.2 µM (inactive) | 24.8 µM (inactive) | 24.2 µM (inactive) | 15.1 µM (inactive) | 23.8 µM (inactive) | – | 20.7 µM (inactive) | 18.5 µM | 15.9 µM (inactive) | 16.2 µM (inactive) | 24.7 µM (inactive) | 15.7 µM (inactive) | 18.1 µM (inactive) | – | – | – | – | – | –
CCCCCCCCCCCCCC(=O)OCC1OC(=O)CC1O (stereo unspecified) | 81.5 µM (inactive) | > 100 µM (inactive) | > 100 µM (inactive) | > 100 µM (inactive) | 34.8 µM (inactive) | 35.2 µM (inactive) | 42 µM (inactive) | 43 µM (inactive) | 25.4 µM | > 100 µM (inactive) | > 100 µM (inactive) | > 100 µM (inactive) | > 100 µM (inactive) | > 100 µM (inactive) | – | – | – | – | – | –
CCOC(=O)C1(Cc2ccccc2)CCCCCN1 (stereo unspecified) | – | – | > 100 µM (inactive) | > 100 µM (inactive) | > 100 µM (inactive) | > 100 µM (inactive) | – | > 100 µM (inactive) | > 100 µM | > 100 µM (inactive) | – | > 100 µM (inactive) | > 100 µM (inactive) | – | – | – | – | – | – | –
COc1ccc(C2Oc3c(cc(O)c(OC)c3C)[C@@H]2C)cc1OC (stereo partly specified) | > 100 µM (inactive) | 45 µM (inactive) | > 100 µM (inactive) | 47.6 µM (inactive) | > 100 µM (inactive) | > 100 µM (inactive) | 78.5 µM (inactive) | 37.2 µM (inactive) | > 10 µM | > 100 µM (inactive) | 31.6 µM (inactive) | > 100 µM (inactive) | > 100 µM (inactive) | > 100 µM (inactive) | – | – | – | – | – | –
CC(=O)NNc1nc(C)c(C(=O)NNC(=O)C(=O)Nc2ccc(C)cc2[N+](=O)[O-])s1 | > 100 µM (inactive) | > 100 µM (inactive) | > 100 µM (inactive) | > 100 µM (inactive) | > 100 µM (inactive) | > 100 µM (inactive) | 46.1 µM (inactive) | > 100 µM (inactive) | > 100 µM | > 100 µM (inactive) | > 100 µM (inactive) | > 100 µM (inactive) | > 100 µM (inactive) | > 100 µM (inactive) | – | – | – | – | – | –
CC(C)C12C=CC(C)(CC1)n1c(=O)c3cc4ccccc4cc3c(=O)n12 (stereo unspecified) | 50.8 µM (inactive) | 63.1 µM (inactive) | > 100 µM (inactive) | 40.6 µM (inactive) | 38.7 µM (inactive) | 73.5 µM (inactive) | 43.1 µM (inactive) | 87.9 µM (inactive) | 33.3 µM | 55.3 µM (inactive) | 32 µM (inactive) | 29.9 µM (inactive) | 67.3 µM (inactive) | 40.7 µM (inactive) | – | – | – | – | – | –
C=CCCCCCCCCC(=O)NS(=O)(=O)c1ccccc1 | 73.6 µM (inactive) | > 100 µM (inactive) | > 100 µM (inactive) | 88.1 µM (inactive) | 96.6 µM (inactive) | > 100 µM (inactive) | – | > 100 µM (inactive) | – | > 100 µM (inactive) | – | > 100 µM (inactive) | > 100 µM (inactive) | > 100 µM (inactive) | – | – | – | – | – | –
Oc1cc(-c2ccc[nH]2)nc2cc3c(cc12)OCO3 | – | 64.7 µM (inactive) | 17.6 µM (inactive) | 32.2 µM (inactive) | 34.4 µM (inactive) | – | 24.1 µM (inactive) | – | 23.2 µM | 40.6 µM (inactive) | – | 62.8 µM (inactive) | – | – | – | – | – | – | – | –
COc1ccc(/C=C2\C(=O)N(C(=O)c3ccc(NC(C)=O)cc3)N=C2C)cc1OC | > 100 µM (inactive) | > 100 µM (inactive) | > 100 µM (inactive) | > 100 µM (inactive) | > 100 µM (inactive) | > 100 µM (inactive) | > 100 µM (inactive) | > 100 µM (inactive) | > 100 µM | > 100 µM (inactive) | > 100 µM (inactive) | > 100 µM (inactive) | > 100 µM (inactive) | > 100 µM (inactive) | – | – | – | – | – | –
CC1(CO)OC1COCc1ccccc1 (stereo unspecified) | > 100 µM (inactive) | > 100 µM (inactive) | > 100 µM (inactive) | > 100 µM (inactive) | > 100 µM (inactive) | > 100 µM (inactive) | > 100 µM (inactive) | – | > 100 µM | > 100 µM (inactive) | – | – | > 100 µM (inactive) | > 100 µM (inactive) | – | – | – | – | – | –
S=c1sc2c(Cl)nc(Cl)nc2n1-c1ccccc1 | > 100 µM (inactive) | 53 µM (inactive) | 59.6 µM (inactive) | 45.9 µM (inactive) | 16.2 µM (inactive) | > 100 µM (inactive) | 23.1 µM (inactive) | > 100 µM (inactive) | 18.1 µM | > 100 µM (inactive) | 64.4 µM (inactive) | > 100 µM (inactive) | 11.1 µM (inactive) | > 100 µM (inactive) | – | – | – | – | – | –
CCCCCCCCCCCCCCCC(=O)OCC1OC(n2cc(F)c(=O)[nH]c2=O)C(NC(=O)N(CCCl)N=O)C(O)C1O (stereo unspecified) | 1.86 µM (inactive) | 5.94 µM (inactive) | 0.354 µM (active) | 0.343 µM (active) | 2.84 µM (inactive) | 0.156 µM (active) | 0.611 µM (active) | 4.78 µM (inactive) | 4.95 µM | 0.166 µM (active) | 3.94 µM (inactive) | 10.1 µM (inactive) | 0.0246 µM (active) | 13.1 µM (inactive) | – | – | – | – | – | –
CCCCC(C(=O)CCC(=O)Nc1ccc(Cl)c(Cl)c1)C(=O)C(C)C (stereo unspecified) | 84.7 µM (inactive) | > 100 µM (inactive) | > 100 µM (inactive) | 52.4 µM (inactive) | > 100 µM (inactive) | 85.3 µM (inactive) | > 100 µM (inactive) | > 100 µM (inactive) | > 100 µM | > 100 µM (inactive) | > 100 µM (inactive) | 90.4 µM (inactive) | > 100 µM (inactive) | 32.3 µM (inactive) | – | – | – | – | – | –
Nc1ncc(CN2CCCC2)c(-c2ccccc2O)n1 | > 750 µM (inactive) | > 750 µM (inactive) | > 750 µM (inactive) | > 750 µM (inactive) | > 750 µM (inactive) | > 750 µM (inactive) | 8.39 µM (inactive) | > 750 µM (inactive) | > 750 µM | > 750 µM (inactive) | > 750 µM (inactive) | > 750 µM (inactive) | > 750 µM (inactive) | > 750 µM (inactive) | – | – | – | – | > 100 µM (inactive) | –
